Data on one compound can be found in patent US12129221B2, “Difluoro phenyl amide RIP1 inhibitor” (SIRONAX LTD, priority 2018, dated 2024).

Series [1] is described as follows: Liver microsome stability, monkey. The note with it: monkey, liver microsomes. It counts as in vitro ADME. From the text: (§1) Representative Metabolic Stability Data I; +, Extrapolated.
(In general: Microsomes from liver hold many membrane-bound enzymes, among them those of drug oxidation.)

Series [2] in a line: Liver microsome stability, rat. The note with it: liver microsomes. It counts as in vitro ADME.
From the text: as §1

Series [3] in a line: PK in mouse. The note with it: in vivo.
A short description of series [4]: Liver microsome stability, human. The series is classed as in vitro ADME. The note with it: liver microsomes, liver microsome stability, read-out: Human T1/2.
From the text: as §1

A short description of series [5]: Hepatocyte stability, human. The series is classed as in vitro ADME. The note with it: human, hepatocytes, read-out: Human T1/2. From the text: Representative Metabolic Stability Data II, +, Extrapolated.
For series [6], the system named is necrosis. As to the kind of experiment: Necrosis inhibitory activity (cell necrosis / cell viability assay). It counts as cell-based. From the text:
Necrosis Inhibitory Activity
Representative IC50 of hRIP1 Kinase Assay Correlated with Our IC50 of Cell Necrosis Assay: […]

Read-outs that look alike come from different tables or passages of the source.

A word on the AUC(0-inf): it is total exposure, with the tail of the curve extrapolated. The term clearance denotes the volume of plasma or blood freed of the substance per unit of time. For orientation: Cmax means the highest concentration seen after dosing. The term bioavailability denotes the share of a dose that reaches the circulation, judged against a reference dose that is usually intravenous. In general, EC50 refers to the concentration giving half of the maximal effect. For `CCC(C)(C)C(=O)N(O)Cc1cc(F)cc(F)c1` [Compound 13, N-(3,5-difluorobenzyl)-N-hydroxy-2,2-dimethylbutanamide], the half-life in series [1] (comparison table with WO2016/101885 compounds, read-out: Monkey Liver Microsome T1/2) was 5 min; in series [1] (liver microsome stability, read-out: Monkey T1/2), 4.72 min; in series [2] (comparison table with WO2016/101885 compounds, read-out: Rat Liver Microsome T1/2), 20 min; in series [2] (liver microsome stability, read-out: Rat T1/2), 19.9 min; in series [3] (IV 2 mg/kg) it was 17.4 min; in series [3] (PO 10 mg/kg), 28.8 min. Further, the half-life is 49.8 min in series [3] (PO 40 mg/kg); 228 min in series [4]; 152 min in series [5] (Hepatocyte Stability, comparison table); 152 min in series [5] (Hepatocyte stability). The AUC(0-inf) in series [3] (IV 2 mg/kg) was found to be 489 ng·h/mL; in series [3] (PO 10 mg/kg), 823 ng·h/mL; in series [3] (PO 40 mg/kg), 5410 ng·h/mL. The compound further had a clearance in series [3] (IV 2 mg/kg) of 68.2 mL/min/kg. In series [3] (IV 2 mg/kg, read-out: Vdss), the Vd came out at 1.7 L/kg. In addition, the results for the highest concentration (Cmax) in series [3] (PO 10 mg/kg) and in series [3] (PO 40 mg/kg) were 1000 ng/mL and 5420 ng/mL, respectively. Also, the bioavailability in series [3] (PO 10 mg/kg) was determined as 33.7%; in series [3] (PO 40 mg/kg) it was 55.4%. Further, the half-maximal effective concentration (EC50) is 1 to 1000 nM in series [6] (Necrosis Inhibitory Activity, given as range, read-out: EC50) and less than 100 nM in series [6] (cell necrosis assay, given as bound or range, read-out: Cell viability assay, EC50).
